In paper PMC3970552 (Neuropharmacology, 2013):
Values belong to the molecule of their own block, whether it stands above or below them.

Assays:
α3L158CK183Cβ2 nAChR [1] = molecular target: T1, α3L158CK183Cβ2 nAChR (Rattus norvegicus, UniProt P04757+P12390, K210C/L185C); experiment: Oxidation/reduction treatment; format: cell-based; conditions: for IDTT/Icontrol: DTT treatment; for decrease of ACh-evoked currents: 125 μM ACh challenge
α3L158Cβ2 nAChR [2] = molecular target: T2, α3L158Cβ2 nAChR (Rattus norvegicus, UniProt P04757+P12390, L185C); experiment: Oxidation/reduction treatment, evoked currents; format: cell-based; conditions: ACh + Mor currents
T2 sequence (P04757 26-499 L185C): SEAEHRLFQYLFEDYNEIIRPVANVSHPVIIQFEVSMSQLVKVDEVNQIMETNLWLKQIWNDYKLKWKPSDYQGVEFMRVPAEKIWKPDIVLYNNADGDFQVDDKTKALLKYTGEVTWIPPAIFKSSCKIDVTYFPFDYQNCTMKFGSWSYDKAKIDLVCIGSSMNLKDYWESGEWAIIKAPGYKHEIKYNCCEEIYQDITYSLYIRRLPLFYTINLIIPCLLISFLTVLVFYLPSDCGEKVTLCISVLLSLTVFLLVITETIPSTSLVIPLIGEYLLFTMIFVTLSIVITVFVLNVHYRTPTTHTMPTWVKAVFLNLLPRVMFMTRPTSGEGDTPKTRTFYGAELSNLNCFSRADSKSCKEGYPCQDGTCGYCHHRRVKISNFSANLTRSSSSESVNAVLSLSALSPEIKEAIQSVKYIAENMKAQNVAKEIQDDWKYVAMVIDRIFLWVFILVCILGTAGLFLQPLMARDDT
T2 sequence (P12390 25-500): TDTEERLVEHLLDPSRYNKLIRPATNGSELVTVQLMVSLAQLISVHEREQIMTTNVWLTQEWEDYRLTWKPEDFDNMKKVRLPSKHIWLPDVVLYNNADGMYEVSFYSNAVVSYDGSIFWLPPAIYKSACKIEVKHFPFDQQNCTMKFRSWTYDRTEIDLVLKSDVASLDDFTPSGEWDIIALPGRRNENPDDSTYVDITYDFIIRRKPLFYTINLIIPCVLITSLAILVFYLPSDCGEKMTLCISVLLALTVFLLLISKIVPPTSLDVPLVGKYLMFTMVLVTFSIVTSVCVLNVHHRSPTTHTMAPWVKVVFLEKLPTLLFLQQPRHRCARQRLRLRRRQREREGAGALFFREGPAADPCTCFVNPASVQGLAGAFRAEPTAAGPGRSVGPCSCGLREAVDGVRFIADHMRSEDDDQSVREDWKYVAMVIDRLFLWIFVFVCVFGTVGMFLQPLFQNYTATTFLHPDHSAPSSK

α3G181Cβ2 nAChR [3] = molecular target: T3, α3G181Cβ2 nAChR (Rattus norvegicus, UniProt P04757+P12390, G208C); experiment: Oxidation/reduction treatment, evoked currents; format: cell-based; conditions: ACh + Mor currents
T3 sequence (P04757 26-499 G208C): as the sequence (P04757 26-499 L185C) above, with C160L, G183C counted along it
T3 sequence (P12390 25-500): as the sequence (P12390 25-500) above

α3L158CA179Cβ2 nAChR [4] = molecular target: T4, α3L158CA179Cβ2 nAChR (Rattus norvegicus, UniProt P04757+P12390, A206C/L185C); experiment: Oxidation/reduction treatment; format: cell-based; conditions: for IDTT/Icontrol: 40 μM DTT; for ITCEP/Icontrol: 40 μM TCEP
T4 sequence (P04757 26-499 L185C/A206C): as the sequence (P04757 26-499 L185C) above, with A181C counted along it
T4 sequence (P12390 25-500, stated change not applied): as the sequence (P12390 25-500) above

α3L158CG181Cβ2 nAChR [5] = molecular target: T5, α3L158CG181Cβ2 nAChR (Rattus norvegicus, UniProt P04757+P12390, G208C/L185C); experiment: Oxidation/reduction treatment; format: cell-based; conditions: for ACh/Mor-evoked current, % of the control: after H2O2 + ACh + Mor oxidation
T5 sequence (P04757 26-499 L185C/G208C): as the sequence (P04757 26-499 L185C) above, with G183C counted along it
T5 sequence (P12390 25-500): as the sequence (P12390 25-500) above

α3L158CK183Cβ2 nAChR [6] = molecular target: T1, α3L158CK183Cβ2 nAChR; experiment: Two-electrode voltage-clamp concentration-response in Xenopus oocytes; format: cell-based
wild type α3β2 nAChR = wild type α3β2 nAChR (Rattus norvegicus, UniProt P04757+P12390); conditions: ref Cesa et al., 2012, cited from earlier work
Chain of wild type α3β2 nAChR (P04757 26-499): as the sequence (P04757 26-499 L185C) above, with C160L counted along it
Chain of wild type α3β2 nAChR (P12390 25-500): as the sequence (P12390 25-500) above

α3G181Cβ2 nAChR [7] = molecular target: T3, α3G181Cβ2 nAChR; experiment: Two-electrode voltage-clamp concentration-response in Xenopus oocytes; format: cell-based
α3A179Cβ2 nAChR = α3A179Cβ2 nAChR (Rattus norvegicus, UniProt P04757+P12390, A179C/A206C); experiment: as above; format: cell-based
Chain of α3A179Cβ2 nAChR (P04757 26-499 A179C/A206C): as the sequence (P04757 26-499 L185C) above, with A154C, C160L, A181C counted along it
Chain of α3A179Cβ2 nAChR (P12390 25-500, stated change not applied): as the sequence (P12390 25-500) above

α3K183Cβ2 nAChR = α3K183Cβ2 nAChR (Rattus norvegicus, UniProt P04757+P12390, K210C); experiment: as above; format: cell-based
Chain of α3K183Cβ2 nAChR (P04757 26-499 K210C): as the sequence (P04757 26-499 L185C) above, with C160L, K185C counted along it
Chain of α3K183Cβ2 nAChR (P12390 25-500): as the sequence (P12390 25-500) above

α3L158CA179Cβ2 nAChR [8] = molecular target: T4, α3L158CA179Cβ2 nAChR; experiment: as above; format: cell-based; conditions: naïve oocytes
α3L158Cβ2 nAChR [9] = molecular target: T2, α3L158Cβ2 nAChR; experiment: as above; format: cell-based
α3L158CG181Cβ2 nAChR [10] = molecular target: T5, α3L158CG181Cβ2 nAChR; experiment: as above; format: cell-based
α3G181Cβ2 nAChR [11] = molecular target: T3, α3G181Cβ2 nAChR; experiment: MTS-dansyl treatment, evoked currents; format: cell-based; conditions: 100 μM ACh currents
α3L158Cβ2 nAChR [12] = molecular target: T2, α3L158Cβ2 nAChR; experiment: MTS-dansyl treatment, evoked currents; format: cell-based; conditions: 5 μM ACh currents
α3L158CG181Cβ2 nAChR [13] = molecular target: T5, α3L158CG181Cβ2 nAChR; experiment: MTS-dansyl probing of free sulfhydryls, evoked currents; format: cell-based
[14] = DTT after treatment with H2O2 only
[15] = ACh titration + 10 μM Mor, naïve oocytes
[16] = ACh + 10 μM Mor, asymptote at saturating ACh, normalized to highest ACh alone
[17] = Mor alone, relative to internal ACh control
[18] = ACh alone, Hill fit, naïve oocytes

T1 sequence (P04757 26-499 L185C/K210C): as the sequence (P04757 26-499 L185C) above, with K185C counted along it
T1 sequence (P12390 25-500): as the sequence (P12390 25-500) above

SMILES: O[C@@H](CS)[C@@H](O)CS [DTT]
IDTT/Icontrol (ACh + Mor) (α3L158CK183Cβ2 nAChR [1]; DTT post-oxidation): 1.02 ± 0.02
IDTT/Icontrol (ACh) (α3L158CK183Cβ2 nAChR [1]; DTT post-oxidation): 0.97 ± 0.03
IDTT/Icontrol (α3L158CK183Cβ2 nAChR [1]; 125 μM ACh): 1.10 ± 0.01
IDTT/Icontrol (α3L158CK183Cβ2 nAChR [1]; 125 μM ACh + 10 μM Mor): 1.19 ± 0.03
IDTT/IH2O2 (α3L158Cβ2 nAChR [2]): 0.96 ± 0.17
IDTT/IH2O2 (α3G181Cβ2 nAChR [3]): 0.96 ± 0.06
IDTT/Icontrol (α3L158CA179Cβ2 nAChR [4]; 24 μM ACh): 1.30 ± 0.08
IDTT/Icontrol (α3L158CA179Cβ2 nAChR [4]; 24 μM ACh + 10 μM Mor): 1.26 ± 0.07
IDTT/Icontrol (ACh + Mor) (α3L158CA179Cβ2 nAChR [4]; [14]): 1.06 ± 0.06
IDTT/Icontrol (ACh) (α3L158CA179Cβ2 nAChR [4]; [14]): 0.99 ± 0.04
increase of ACh-evoked current (α3L158CG181Cβ2 nAChR [5]; 40 μM DTT 5 min on naive oocytes, prior to H2O2, challenge 100 μM ACh): 25%

SMILES: Cc1ccsc1C=CC1=NCCCN1C.O=C(O)C(O)C(O)C(=O)O [Mor, 1,4,5,6-tetrahydro-1-methyl-2-(2-[3-methyl-2-thienyl]ethenyl)pyrimidine, tartrate salt]
Mor potentiation (α3L158CK183Cβ2 nAChR [6]; ACh + 10 μM Mor vs ACh alone): effectively no potentiation
Mor Modulation Response nH (α3L158CK183Cβ2 nAChR [6]; [15]): 0.95 ± 0.16
Mor Modulation Response nH (wild type α3β2 nAChR; ACh titration + 10 μM Mor): 1.37 ± 0.80
EC50 (α3G181Cβ2 nAChR [7]): 41 ± 26 µM
Mor Modulation Response Emax (α3G181Cβ2 nAChR [7]; [16]): 2.3 ± 0.1
Mor Modulation Response nH (α3G181Cβ2 nAChR [7]; ACh titration + 10 μM Mor): 1.08 ± 0.12
Emax, activation by Mor alone (α3G181Cβ2 nAChR [7]; [17]): 0.32 ± 0.05
Mor Modulation Response Emax (α3A179Cβ2 nAChR; [16]): 1.6 ± 0.1
Mor Modulation Response nH (α3A179Cβ2 nAChR; ACh titration + 10 μM Mor): 1.79 ± 0.75
Mor potentiation (α3K183Cβ2 nAChR; ACh + 10 μM Mor vs ACh alone): negligible Mor potentiation
Mor Modulation Response Emax (α3K183Cβ2 nAChR; [16]): 0.97 ± 0.02
Mor Modulation Response nH (α3K183Cβ2 nAChR; ACh titration + 10 μM Mor): 1.61 ± 0.22
Mor Modulation Response nH (α3L158CA179Cβ2 nAChR [8]; ACh titration + 10 μM Mor): 1.70 ± 0.50
EC50 (α3L158Cβ2 nAChR [9]): 12 ± 7 µM
Mor Modulation Response Emax (α3L158Cβ2 nAChR [9]; [16]): 1.6 ± 0.1
Mor Modulation Response nH (α3L158Cβ2 nAChR [9]; ACh titration + 10 μM Mor): 1.47 ± 0.39
Emax, activation by Mor alone (α3L158Cβ2 nAChR [9]; [17]): 0.021 ± 0.002
EC50 (α3L158CG181Cβ2 nAChR [10]): 28 ± 10 µM
Mor Modulation Response nH (α3L158CG181Cβ2 nAChR [10]; [15]): 1.18 ± 0.25
Emax, activation by Mor alone (α3L158CG181Cβ2 nAChR [10]; [17]): 0.074 ± 0.009

ACh Response nH (α3L158CK183Cβ2 nAChR [6]; [18]): 1.11 ± 0.14 [6]
ACh Response nH (α3G181Cβ2 nAChR [7]; ACh alone, Hill fit): 1.10 ± 0.11 [5]
ACh Response nH (α3A179Cβ2 nAChR; ACh alone, Hill fit): 0.79 ± 0.08 [8]
ACh Response nH (α3K183Cβ2 nAChR; ACh alone, Hill fit): 2.43 ± 0.78 [9]
ACh Response nH (α3L158CA179Cβ2 nAChR [8]; ACh alone, Hill fit): 1.19 ± 0.20 [7]
ACh Response nH (α3L158Cβ2 nAChR [9]; ACh alone, Hill fit): 0.80 ± 0.11 [6] ^b
ACh Response nH (α3L158CG181Cβ2 nAChR [10]; [18]): 0.93 ± 0.23 [5]
SMILES: CC(=O)OCC[N+](C)(C)C [ACh, acetylcholine]
ACh Response nH (wild type α3β2 nAChR; ACh alone, Hill fit): 0.75 ± 0.07

SMILES: OO [H2O2]
decrease of ACh-evoked currents (α3L158CK183Cβ2 nAChR [1]; H2O2 + ACh + Mor treatment): 28%
decrease of ACh-evoked currents (α3L158CK183Cβ2 nAChR [1]; H2O2 alone treatment): 13%
IH2O2/Icontrol (α3L158Cβ2 nAChR [2]): 0.78 ± 0.08
IH2O2/Icontrol (α3G181Cβ2 nAChR [3]): 0.94 ± 0.03
decrease of evoked currents (α3L158CA179Cβ2 nAChR [4]; two oxidation conditions (H2O2 alone; H2O2 + ACh + Mor), two challenges (24 μM ACh; 24 μM ACh + 10 μM Mor)): 25–28%
decrease of ACh-evoked current (α3L158CG181Cβ2 nAChR [5]; 4.4 mM H2O2 + 100 μM ACh + 10 μM Mor, 5 min, challenge 100 μM ACh): 26%
decrease of ACh + Mor-evoked current (α3L158CG181Cβ2 nAChR [5]; 4.4 mM H2O2 + 100 μM ACh + 10 μM Mor, 5 min, challenge 100 μM ACh + 10 μM Mor): 26%
effect on ACh-evoked currents (α3L158CG181Cβ2 nAChR [5]; 4.4 mM H2O2 alone, 5 min, challenge 100 μM ACh): no apparent effect
decrease of currents evoked by ACh and Mor (α3L158CG181Cβ2 nAChR [5]; 4.4 mM H2O2 alone, 5 min, challenge 100 μM ACh + 10 μM Mor): 24%
decrease of ACh-evoked current relative to post-reduction value (α3L158CG181Cβ2 nAChR [5]; H2O2 + ACh + Mor oxidation after DTT, challenge 100 μM ACh): 52%
decrease of ACh/Mor-evoked current relative to post-reduction value (α3L158CG181Cβ2 nAChR [5]; H2O2 + ACh + Mor oxidation after DTT, challenge 100 μM ACh + 10 μM Mor): 46%
Ipost-oxidation/Icontrol (α3L158CG181Cβ2 nAChR [5]; H2O2 + ACh + Mor treatment, 5 μM ACh currents (MTS probing experiments)): 0.66 ± 0.05
ACh/Mor-evoked current, % of the control (α3L158CG181Cβ2 nAChR [5]; challenges every 100 sec, first response): about 60%
ACh/Mor-evoked current, % of the control (α3L158CG181Cβ2 nAChR [5]; five successive challenges in 500 sec): ≤ 80%

SMILES: CN(C)c1cccc2c(S(=O)(=O)NCCSS(C)(=O)=O)cccc12 [MTS-dansyl, dansylamidoethyl methanesthiosulfonate]
decrease of ACh currents after MTS-dansyl (α3G181Cβ2 nAChR [11]): 21 ± 4%
decrease of ACh currents after MTS-dansyl (α3L158Cβ2 nAChR [12]): 44 ± 2%
decrease of ACh/Mor-evoked currents by MTS (α3L158CG181Cβ2 nAChR [13]; after H2O2 + ACh + Mor oxidation, 5 μM ACh + 10 μM Mor): 8%
decrease of ACh current after MTS (α3L158CG181Cβ2 nAChR [13]; after H2O2 alone treatment, 5 μM ACh): 27%
decrease of ACh + Mor current after MTS (α3L158CG181Cβ2 nAChR [13]; after H2O2 alone treatment, 5 μM ACh + 10 μM Mor): 21%
decrease of ACh/Mor-evoked currents by MTS (α3L158CG181Cβ2 nAChR [13]; after standard oxidation then 200–300 sec wash, 5 μM ACh + 10 μM Mor): 14%
decrease of ACh-evoked current after MTS-dansyl (α3L158CG181Cβ2 nAChR [13]; naive oocytes, 50 μM MTS-dansyl 2 min, 5 μM ACh): 33%
decrease of ACh/Mor-evoked current after MTS-dansyl (α3L158CG181Cβ2 nAChR [13]; naive oocytes, 50 μM MTS-dansyl 2 min, 5 μM ACh + 10 μM Mor): 14%

SMILES: O=C(O)CCP(CCC(=O)O)CCC(=O)O [TCEP, tris(2-carboxyethyl)phosphine]
ITCEP/Icontrol (α3L158CA179Cβ2 nAChR [4]; ACh): 1.21 ± 0.04
ITCEP/Icontrol (α3L158CA179Cβ2 nAChR [4]; ACh + Mor): 1.24 ± 0.05
